Experimental data published in the kinase profiling compilation of Christmann-Franck et al. (2016).

Key:
Test in all cases: KINOMEscan competition binding
Settings in all cases: compound 10.0 µM
CSNK1A1 (human) = CSNK1A1 (human) (UniProt P48729)
PKMYT1 (human) = PKMYT1 (human) (UniProt Q99640)
EPHB1 (human) = EPHB1 (human) (UniProt P54762)
ACVR2A (human) = ACVR2A (human) (UniProt P27037)
MINK1 (human) = MINK1 (human) (UniProt Q8N4C8)
TYRO3 (human) = TYRO3 (human) (UniProt Q06418)
CRK2 (P.falciparum) = CRK2 (P.falciparum) (UniProt P61075)
ALK (human) = ALK (human) (UniProt Q9UM73)
SLK (human) = SLK (human) (UniProt Q9H2G2)
ERBB2 (human) = ERBB2 (human) (UniProt P04626)
LRRK2 (human) = LRRK2 (human) (UniProt Q5S007)
PIP4K2C (human) = PIP4K2C (human) (UniProt Q8TBX8)
PRPF4B (human) = PRPF4B (human) (UniProt Q13523)
CLK2 (human) = CLK2 (human) (UniProt P49760)
EPHA1 (human) = EPHA1 (human) (UniProt P21709)
MAP2K6 (human) = MAP2K6 (human) (UniProt P52564)
EPHB4 (human) = EPHB4 (human) (UniProt P54760)
CDK17 (human) = CDK17 (human) (UniProt Q00537)
[1] = biological target: TYK2 JH1 catalytic (human) (UniProt P29597)
MAP3K2 (human) = MAP3K2 (human) (UniProt Q9Y2U5)
CDK16 (human) = CDK16 (human) (UniProt Q00536)
NEK9 (human) = NEK9 (human) (UniProt Q8TD19)
TAOK2 (human) = TAOK2 (human) (UniProt Q9UL54)
NIM1 (human) = NIM1 (human) (UniProt Q8IY84)
RIPK4 (human) = RIPK4 (human) (UniProt P57078)
LATS1 (human) = LATS1 (human) (UniProt O95835)
ABL2 (human) = ABL2 (human) (UniProt P42684)
RPS6KA1 KD1 (human) = RPS6KA1 KD1 (human) (UniProt Q15418)
MAK (human) = MAK (human) (UniProt P20794)
MAP3K12 (human) = MAP3K12 (human) (UniProt Q12852)
NEK5 (human) = NEK5 (human) (UniProt Q6P3R8)
YES1 (human) = YES1 (human) (UniProt P07947)
MST4 (human) = MST4 (human) (UniProt Q9P289)
PRKCD (human) = PRKCD (human) (UniProt Q05655)
ACVR1B (human) = ACVR1B (human) (UniProt P36896)
CAMK4 (human) = CAMK4 (human) (UniProt Q16566)
TNK1 (human) = TNK1 (human) (UniProt Q13470)
TEK (human) = TEK (human) (UniProt Q02763)
MARK2 (human) = MARK2 (human) (UniProt Q7KZI7)
[2] = system: EGFR (human), P00533 [T790M/L858R]

Sequence of TEK (human) (Q02763 whole entry, looked up): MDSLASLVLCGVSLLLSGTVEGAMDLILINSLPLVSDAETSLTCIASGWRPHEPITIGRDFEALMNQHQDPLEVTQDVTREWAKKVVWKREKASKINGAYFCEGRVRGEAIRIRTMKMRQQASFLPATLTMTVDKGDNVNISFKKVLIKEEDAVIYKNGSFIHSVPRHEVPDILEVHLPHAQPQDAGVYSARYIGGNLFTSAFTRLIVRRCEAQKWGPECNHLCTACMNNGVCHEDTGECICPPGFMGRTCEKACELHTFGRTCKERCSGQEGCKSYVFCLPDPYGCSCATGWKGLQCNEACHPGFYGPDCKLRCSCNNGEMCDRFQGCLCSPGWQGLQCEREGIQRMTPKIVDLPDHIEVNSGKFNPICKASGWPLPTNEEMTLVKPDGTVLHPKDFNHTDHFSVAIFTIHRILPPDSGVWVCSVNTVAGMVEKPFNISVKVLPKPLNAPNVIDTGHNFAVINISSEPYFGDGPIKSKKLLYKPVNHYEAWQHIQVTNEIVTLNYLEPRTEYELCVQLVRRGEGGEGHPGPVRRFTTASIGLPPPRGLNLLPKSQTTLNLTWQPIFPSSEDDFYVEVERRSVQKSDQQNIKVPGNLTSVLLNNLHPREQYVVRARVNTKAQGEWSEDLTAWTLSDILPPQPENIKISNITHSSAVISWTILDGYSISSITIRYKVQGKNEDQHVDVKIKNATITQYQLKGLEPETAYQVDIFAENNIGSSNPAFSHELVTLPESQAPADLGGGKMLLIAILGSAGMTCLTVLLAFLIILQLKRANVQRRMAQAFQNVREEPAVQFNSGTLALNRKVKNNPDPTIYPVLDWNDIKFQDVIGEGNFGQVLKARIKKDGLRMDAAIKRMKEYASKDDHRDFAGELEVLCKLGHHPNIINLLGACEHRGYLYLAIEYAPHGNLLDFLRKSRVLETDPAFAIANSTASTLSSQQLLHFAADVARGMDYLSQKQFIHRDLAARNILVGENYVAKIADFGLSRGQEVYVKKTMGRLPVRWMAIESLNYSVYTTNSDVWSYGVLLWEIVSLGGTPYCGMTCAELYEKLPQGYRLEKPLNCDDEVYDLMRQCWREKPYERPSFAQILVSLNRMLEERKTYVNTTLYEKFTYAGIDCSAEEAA
Sequence of CDK16 (human) (Q00536 whole entry, looked up): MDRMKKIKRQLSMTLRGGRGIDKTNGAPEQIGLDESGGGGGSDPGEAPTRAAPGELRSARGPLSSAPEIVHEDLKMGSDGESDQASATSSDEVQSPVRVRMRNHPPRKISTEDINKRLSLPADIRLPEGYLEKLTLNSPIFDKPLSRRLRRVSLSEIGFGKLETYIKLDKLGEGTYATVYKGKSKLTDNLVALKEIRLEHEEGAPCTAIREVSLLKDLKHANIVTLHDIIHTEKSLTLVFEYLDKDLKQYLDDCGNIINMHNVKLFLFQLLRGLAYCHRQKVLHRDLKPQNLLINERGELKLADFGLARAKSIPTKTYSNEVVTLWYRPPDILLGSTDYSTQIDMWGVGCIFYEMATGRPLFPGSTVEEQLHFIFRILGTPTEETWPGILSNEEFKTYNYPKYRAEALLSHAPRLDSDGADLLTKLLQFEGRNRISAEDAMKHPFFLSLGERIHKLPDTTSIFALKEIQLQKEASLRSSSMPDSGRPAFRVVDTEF
Sequence of ALK (human) (Q9UM73 whole entry, looked up): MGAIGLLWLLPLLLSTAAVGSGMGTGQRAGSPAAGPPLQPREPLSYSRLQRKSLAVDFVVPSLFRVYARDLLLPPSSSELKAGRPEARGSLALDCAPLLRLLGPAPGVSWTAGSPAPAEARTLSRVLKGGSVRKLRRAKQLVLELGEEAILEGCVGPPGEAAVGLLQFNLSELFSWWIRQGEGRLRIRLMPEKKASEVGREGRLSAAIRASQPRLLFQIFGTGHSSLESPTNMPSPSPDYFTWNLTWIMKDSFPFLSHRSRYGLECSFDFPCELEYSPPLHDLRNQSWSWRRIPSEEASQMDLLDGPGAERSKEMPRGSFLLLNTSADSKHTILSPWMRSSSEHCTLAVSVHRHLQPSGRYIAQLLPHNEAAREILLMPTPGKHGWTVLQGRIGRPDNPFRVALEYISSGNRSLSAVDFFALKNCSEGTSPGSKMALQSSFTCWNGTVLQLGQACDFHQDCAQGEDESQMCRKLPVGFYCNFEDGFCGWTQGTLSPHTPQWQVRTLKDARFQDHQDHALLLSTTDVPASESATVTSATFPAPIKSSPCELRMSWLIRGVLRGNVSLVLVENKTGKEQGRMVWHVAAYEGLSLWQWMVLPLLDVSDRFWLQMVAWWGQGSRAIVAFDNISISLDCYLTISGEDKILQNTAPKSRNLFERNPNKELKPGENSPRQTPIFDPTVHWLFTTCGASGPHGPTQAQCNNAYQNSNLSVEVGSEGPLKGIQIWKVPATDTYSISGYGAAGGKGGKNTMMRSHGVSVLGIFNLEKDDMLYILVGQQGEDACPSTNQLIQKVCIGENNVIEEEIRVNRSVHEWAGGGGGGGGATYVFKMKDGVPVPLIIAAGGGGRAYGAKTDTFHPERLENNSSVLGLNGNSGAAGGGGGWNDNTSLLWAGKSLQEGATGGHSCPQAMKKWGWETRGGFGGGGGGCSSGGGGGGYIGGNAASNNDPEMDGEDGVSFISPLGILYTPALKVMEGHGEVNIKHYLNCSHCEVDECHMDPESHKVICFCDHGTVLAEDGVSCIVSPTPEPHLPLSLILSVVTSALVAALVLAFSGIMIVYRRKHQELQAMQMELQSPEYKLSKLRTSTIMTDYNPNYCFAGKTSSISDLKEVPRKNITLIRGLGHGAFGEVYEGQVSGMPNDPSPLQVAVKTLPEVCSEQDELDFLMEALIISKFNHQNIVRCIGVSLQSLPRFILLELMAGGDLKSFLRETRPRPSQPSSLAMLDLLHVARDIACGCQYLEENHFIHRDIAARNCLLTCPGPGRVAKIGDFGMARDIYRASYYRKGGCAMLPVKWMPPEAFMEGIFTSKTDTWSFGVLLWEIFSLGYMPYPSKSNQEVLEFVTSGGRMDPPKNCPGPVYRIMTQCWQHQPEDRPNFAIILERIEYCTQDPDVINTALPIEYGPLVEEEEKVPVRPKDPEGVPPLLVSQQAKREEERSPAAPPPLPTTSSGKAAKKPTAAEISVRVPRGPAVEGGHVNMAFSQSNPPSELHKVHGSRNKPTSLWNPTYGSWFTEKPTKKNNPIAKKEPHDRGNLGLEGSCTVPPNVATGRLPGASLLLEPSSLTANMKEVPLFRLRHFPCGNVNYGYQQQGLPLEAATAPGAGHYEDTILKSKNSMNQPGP
Sequence of MARK2 (human) (Q7KZI7 whole entry, looked up): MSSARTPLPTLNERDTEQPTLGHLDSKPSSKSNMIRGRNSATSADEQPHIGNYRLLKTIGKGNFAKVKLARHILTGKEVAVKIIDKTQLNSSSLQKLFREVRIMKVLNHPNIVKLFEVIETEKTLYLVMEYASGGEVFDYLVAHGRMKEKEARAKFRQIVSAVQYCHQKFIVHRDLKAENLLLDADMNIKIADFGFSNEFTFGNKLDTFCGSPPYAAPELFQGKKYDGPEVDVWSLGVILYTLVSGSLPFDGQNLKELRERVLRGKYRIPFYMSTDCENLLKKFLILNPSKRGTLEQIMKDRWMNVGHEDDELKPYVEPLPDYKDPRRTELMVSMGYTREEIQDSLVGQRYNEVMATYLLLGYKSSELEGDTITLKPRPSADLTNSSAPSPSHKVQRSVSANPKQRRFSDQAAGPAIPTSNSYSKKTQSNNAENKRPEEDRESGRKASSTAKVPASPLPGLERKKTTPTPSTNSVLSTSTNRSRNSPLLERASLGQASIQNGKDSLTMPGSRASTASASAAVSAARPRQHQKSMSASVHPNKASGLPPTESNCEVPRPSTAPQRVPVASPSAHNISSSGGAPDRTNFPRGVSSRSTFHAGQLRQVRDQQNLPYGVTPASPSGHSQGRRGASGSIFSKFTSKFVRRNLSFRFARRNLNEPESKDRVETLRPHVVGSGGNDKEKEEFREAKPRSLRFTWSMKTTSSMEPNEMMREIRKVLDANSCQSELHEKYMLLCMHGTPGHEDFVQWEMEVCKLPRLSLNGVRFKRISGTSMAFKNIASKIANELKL
Sequence of NEK5 (human) (Q6P3R8 whole entry, looked up): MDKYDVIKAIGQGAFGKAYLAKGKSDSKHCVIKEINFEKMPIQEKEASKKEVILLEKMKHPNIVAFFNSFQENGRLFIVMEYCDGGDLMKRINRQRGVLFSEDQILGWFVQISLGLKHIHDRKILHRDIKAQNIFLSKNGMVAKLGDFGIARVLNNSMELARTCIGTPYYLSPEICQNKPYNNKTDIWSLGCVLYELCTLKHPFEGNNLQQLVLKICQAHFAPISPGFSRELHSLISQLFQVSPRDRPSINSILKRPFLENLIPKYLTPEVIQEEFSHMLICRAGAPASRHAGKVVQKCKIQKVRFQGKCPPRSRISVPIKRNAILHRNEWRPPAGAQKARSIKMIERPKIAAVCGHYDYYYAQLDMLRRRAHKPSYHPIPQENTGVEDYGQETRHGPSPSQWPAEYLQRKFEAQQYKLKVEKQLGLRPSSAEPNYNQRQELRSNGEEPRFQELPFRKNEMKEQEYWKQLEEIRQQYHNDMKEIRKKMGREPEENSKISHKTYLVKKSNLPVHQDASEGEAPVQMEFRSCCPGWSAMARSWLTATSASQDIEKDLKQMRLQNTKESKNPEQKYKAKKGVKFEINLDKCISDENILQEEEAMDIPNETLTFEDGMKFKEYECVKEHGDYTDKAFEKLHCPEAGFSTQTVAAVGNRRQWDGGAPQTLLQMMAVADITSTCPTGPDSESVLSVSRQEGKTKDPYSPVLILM
Sequence of MAP2K6 (human) (P52564 whole entry, looked up): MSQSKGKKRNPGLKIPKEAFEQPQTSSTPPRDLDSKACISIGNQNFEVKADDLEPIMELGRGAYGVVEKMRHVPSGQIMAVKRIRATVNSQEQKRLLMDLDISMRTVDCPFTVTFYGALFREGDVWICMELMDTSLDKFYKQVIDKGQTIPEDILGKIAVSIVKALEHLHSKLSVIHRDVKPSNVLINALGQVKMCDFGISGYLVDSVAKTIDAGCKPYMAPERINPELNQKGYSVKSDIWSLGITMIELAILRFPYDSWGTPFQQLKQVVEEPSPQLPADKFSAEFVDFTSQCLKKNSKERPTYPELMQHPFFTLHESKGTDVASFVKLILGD

In the case of `COCC(=O)NC/C=C/c1ccc2ncnc(Nc3ccc(Oc4ccc(C)nc4)c(C)c3)c2c1`, the kinase still bound, per cent of control (CSNK1A1 (human)) is reported as 100%, the kinase still bound, per cent of control (PKMYT1 (human)) is reported as 100% and the kinase still bound, per cent of control (EPHB1 (human)) is reported as 100%. It also gave a kinase still bound, per cent of control (ACVR2A (human)) of 100%, a kinase still bound, per cent of control (MINK1 (human)) of 77% and a kinase still bound, per cent of control (TYRO3 (human)) of 80%. The kinase still bound, per cent of control (CRK2 (P.falciparum)) was 100%, the kinase still bound, per cent of control (ALK (human)) was 100% and the kinase still bound, per cent of control (SLK (human)) was 60%. It also gave a kinase still bound, per cent of control (ERBB2 (human)) of 0%, a kinase still bound, per cent of control (LRRK2 (human)) of 100% and a kinase still bound, per cent of control (PIP4K2C (human)) of 84%. For the same molecule, the kinase still bound, per cent of control (PRPF4B (human)) was 93%, the kinase still bound, per cent of control (CLK2 (human)) was 75% and the kinase still bound, per cent of control (EPHA1 (human)) was 88%. For the same molecule, the kinase still bound, per cent of control (MAP2K6 (human)) was 93%, the kinase still bound, per cent of control (EPHB4 (human)) was 95% and the kinase still bound, per cent of control (CDK17 (human)) was 100%. For the same molecule, the kinase still bound, per cent of control [1] was 100%, the kinase still bound, per cent of control (MAP3K2 (human)) was 100% and the kinase still bound, per cent of control (CDK16 (human)) was 74%. The kinase still bound, per cent of control (NEK9 (human)) was 82%, the kinase still bound, per cent of control (TAOK2 (human)) was 100% and the kinase still bound, per cent of control (NIM1 (human)) was 87%. It also gave a kinase still bound, per cent of control (RIPK4 (human)) of 100%, a kinase still bound, per cent of control (LATS1 (human)) of 100% and a kinase still bound, per cent of control (ABL2 (human)) of 100%. It also gave a kinase still bound, per cent of control (RPS6KA1 KD1 (human)) of 100%, a kinase still bound, per cent of control (MAK (human)) of 90% and a kinase still bound, per cent of control (MAP3K12 (human)) of 92%. It also gave a kinase still bound, per cent of control (NEK5 (human)) of 100%, a kinase still bound, per cent of control (YES1 (human)) of 65% and a kinase still bound, per cent of control (MST4 (human)) of 90%. For the same molecule, the kinase still bound, per cent of control (PRKCD (human)) was 87%, the kinase still bound, per cent of control (ACVR1B (human)) was 100% and the kinase still bound, per cent of control (CAMK4 (human)) was 86%. It also gave a kinase still bound, per cent of control (TNK1 (human)) of 86% and a kinase still bound, per cent of control (TEK (human)) of 100%.

`N#CCNC(=O)c1ccc(-c2ccnc(Nc3ccc(N4CCOCC4)cc3)n2)cc1` gave a kinase still bound, per cent of control (CSNK1A1 (human)) of 81%, a kinase still bound, per cent of control (PKMYT1 (human)) of 100% and a kinase still bound, per cent of control (EPHB1 (human)) of 91%. For the same molecule, the kinase still bound, per cent of control (ACVR2A (human)) was 75%, the kinase still bound, per cent of control (MINK1 (human)) was 82% and the kinase still bound, per cent of control (TYRO3 (human)) was 100%. For the same molecule, the kinase still bound, per cent of control (CRK2 (P.falciparum)) was 100%, the kinase still bound, per cent of control (ALK (human)) was 100% and the kinase still bound, per cent of control (SLK (human)) was 100%. The kinase still bound, per cent of control (ERBB2 (human)) was 61%, the kinase still bound, per cent of control (MARK2 (human)) was 43% and the kinase still bound, per cent of control (LRRK2 (human)) was 48%. For the same molecule, the kinase still bound, per cent of control (PIP4K2C (human)) was 54%, the kinase still bound, per cent of control (PRPF4B (human)) was 8% and the kinase still bound, per cent of control (CLK2 (human)) was 7.4%. For the same molecule, the kinase still bound, per cent of control (EPHA1 (human)) was 100%, the kinase still bound, per cent of control (MAP2K6 (human)) was 77% and the kinase still bound, per cent of control (EPHB4 (human)) was 100%. For the same molecule, the kinase still bound, per cent of control (CDK17 (human)) was 55%, the kinase still bound, per cent of control [1] was 0.25% and the kinase still bound, per cent of control (MAP3K2 (human)) was 100%. For the same molecule, the kinase still bound, per cent of control (CDK16 (human)) was 21%, the kinase still bound, per cent of control (NEK9 (human)) was 9.4% and the kinase still bound, per cent of control (TAOK2 (human)) was 100%. For the same molecule, the kinase still bound, per cent of control (NIM1 (human)) was 100%, the kinase still bound, per cent of control (RIPK4 (human)) was 100% and the kinase still bound, per cent of control (LATS1 (human)) was 100%. It also gave a kinase still bound, per cent of control (ABL2 (human)) of 57%, a kinase still bound, per cent of control (RPS6KA1 KD1 (human)) of 100% and a kinase still bound, per cent of control (MAK (human)) of 100%. The kinase still bound, per cent of control (MAP3K12 (human)) was 100%, the kinase still bound, per cent of control (NEK5 (human)) was 2.4% and the kinase still bound, per cent of control (YES1 (human)) was 91%. For the same molecule, the kinase still bound, per cent of control (MST4 (human)) was 83%, the kinase still bound, per cent of control (PRKCD (human)) was 54% and the kinase still bound, per cent of control (ACVR1B (human)) was 38%. The kinase still bound, per cent of control (CAMK4 (human)) was 100%, the kinase still bound, per cent of control (TNK1 (human)) was 33% and the kinase still bound, per cent of control (TEK (human)) was 100%.

Molecule `O=c1cc(N2CCOCC2)oc2c(-c3cccc4c3sc3ccccc34)cccc12` has a kinase still bound, per cent of control (CSNK1A1 (human)) of 78%, a kinase still bound, per cent of control (PKMYT1 (human)) of 92% and a kinase still bound, per cent of control (EPHB1 (human)) of 100%. For the same molecule, the kinase still bound, per cent of control (ACVR2A (human)) was 96%, the kinase still bound, per cent of control (MINK1 (human)) was 100% and the kinase still bound, per cent of control (TYRO3 (human)) was 100%. For the same molecule, the kinase still bound, per cent of control (CRK2 (P.falciparum)) was 100%, the kinase still bound, per cent of control (ALK (human)) was 100% and the kinase still bound, per cent of control (SLK (human)) was 100%. It also gave a kinase still bound, per cent of control (ERBB2 (human)) of 100%, a kinase still bound, per cent of control (MARK2 (human)) of 90% and a kinase still bound, per cent of control (LRRK2 (human)) of 100%. It also gave a kinase still bound, per cent of control (PIP4K2C (human)) of 89%, a kinase still bound, per cent of control (PRPF4B (human)) of 78% and a kinase still bound, per cent of control (CLK2 (human)) of 65%. The kinase still bound, per cent of control (EPHA1 (human)) was 92%, the kinase still bound, per cent of control (MAP2K6 (human)) was 73% and the kinase still bound, per cent of control (EPHB4 (human)) was 87%. It also gave a kinase still bound, per cent of control (CDK17 (human)) of 100%, a kinase still bound, per cent of control [1] of 75% and a kinase still bound, per cent of control (MAP3K2 (human)) of 100%. The kinase still bound, per cent of control (CDK16 (human)) was 97%, the kinase still bound, per cent of control [2] was 93% and the kinase still bound, per cent of control (NEK9 (human)) was 93%. The kinase still bound, per cent of control (TAOK2 (human)) was 98%, the kinase still bound, per cent of control (NIM1 (human)) was 100% and the kinase still bound, per cent of control (RIPK4 (human)) was 100%. It also gave a kinase still bound, per cent of control (LATS1 (human)) of 100%, a kinase still bound, per cent of control (ABL2 (human)) of 92% and a kinase still bound, per cent of control (RPS6KA1 KD1 (human)) of 100%. The kinase still bound, per cent of control (MAK (human)) was 43%, the kinase still bound, per cent of control (MAP3K12 (human)) was 90% and the kinase still bound, per cent of control (NEK5 (human)) was 100%. The kinase still bound, per cent of control (YES1 (human)) was 94%, the kinase still bound, per cent of control (MST4 (human)) was 95% and the kinase still bound, per cent of control (PRKCD (human)) was 80%. For the same molecule, the kinase still bound, per cent of control (ACVR1B (human)) was 91%, the kinase still bound, per cent of control (CAMK4 (human)) was 100% and the kinase still bound, per cent of control (TNK1 (human)) was 100%. It also gave a kinase still bound, per cent of control (TEK (human)) of 100%.

`COc1cc2ncn(-c3cc(OCc4ccccc4C(F)(F)F)c(C(N)=O)s3)c2cc1OC` gave a kinase still bound, per cent of control (CSNK1A1 (human)) of 60%, a kinase still bound, per cent of control (PKMYT1 (human)) of 60% and a kinase still bound, per cent of control (EPHB1 (human)) of 96%. The kinase still bound, per cent of control (ACVR2A (human)) was 79%, the kinase still bound, per cent of control (MINK1 (human)) was 63% and the kinase still bound, per cent of control (TYRO3 (human)) was 72%. For the same molecule, the kinase still bound, per cent of control (CRK2 (P.falciparum)) was 93%, the kinase still bound, per cent of control (ALK (human)) was 100% and the kinase still bound, per cent of control (SLK (human)) was 0.25%. It also gave a kinase still bound, per cent of control (ERBB2 (human)) of 100%, a kinase still bound, per cent of control (MARK2 (human)) of 50% and a kinase still bound, per cent of control (LRRK2 (human)) of 80%. The kinase still bound, per cent of control (PIP4K2C (human)) was 26%, the kinase still bound, per cent of control (PRPF4B (human)) was 20% and the kinase still bound, per cent of control (CLK2 (human)) was 47%. The kinase still bound, per cent of control (EPHA1 (human)) was 84%, the kinase still bound, per cent of control (MAP2K6 (human)) was 85% and the kinase still bound, per cent of control (EPHB4 (human)) was 87%. The kinase still bound, per cent of control (CDK17 (human)) was 100%, the kinase still bound, per cent of control [1] was 59% and the kinase still bound, per cent of control (MAP3K2 (human)) was 100%. It also gave a kinase still bound, per cent of control (CDK16 (human)) of 100%, a kinase still bound, per cent of control (NEK9 (human)) of 48% and a kinase still bound, per cent of control (TAOK2 (human)) of 100%. For the same molecule, the kinase still bound, per cent of control (NIM1 (human)) was 88%, the kinase still bound, per cent of control (RIPK4 (human)) was 100% and the kinase still bound, per cent of control (LATS1 (human)) was 100%. It also gave a kinase still bound, per cent of control (RPS6KA1 KD1 (human)) of 96%, a kinase still bound, per cent of control (MAK (human)) of 100% and a kinase still bound, per cent of control (MAP3K12 (human)) of 68%. For the same molecule, the kinase still bound, per cent of control (NEK5 (human)) was 36%, the kinase still bound, per cent of control (YES1 (human)) was 97% and the kinase still bound, per cent of control (MST4 (human)) was 85%. The kinase still bound, per cent of control (PRKCD (human)) was 100%, the kinase still bound, per cent of control (ACVR1B (human)) was 76% and the kinase still bound, per cent of control (CAMK4 (human)) was 100%. It also gave a kinase still bound, per cent of control (TNK1 (human)) of 36% and a kinase still bound, per cent of control (TEK (human)) of 57%.
